Measurements as given in publication PMC10349806 (Nature Communications, 2023).
Several values for one entry are separate records, joined by “and”; a condition that tells them apart may be missing. Equal entries are not always repeated.

Molecular target: PfCRT^Dd2 (Plasmodium falciparum, UniProt Q9N623, A220S/I356T/K76T/M74I/N326S/N75E/Q271E/R371I)
Assay: Drug uptake assay, X. laevis oocytes expressing PfCRT^Dd2
Type: cell-based
Conditions: for v-1 pH 4.5 / v-1 pH 5.0 / v-1 pH 5.5 / v-1 pH 6.0: Lineweaver-Burk
Procedure: Oocytes were obtained as described previously. Briefly, adult (>2 years old) female X. laevis frogs (NASCO) were anesthetized in a cooled solution of ethyl 3-amino benzoate methanesulfonate (0.1%, w/v), followed by a surgical removal of parts of the ovary. The ovary lobes were carefully dissected and small pieces of oocytes were incubated in Ca^2+-free ND96 buffer (96 mM NaCl, 2 mM KCl, 1 mM MgCl2 buffered with 5 mM HEPES/NaOH, pH 7.5) supplemented with collagenase D (0.1%, w/v; Roche), BSA (0.5%, w/v), and 9 mm Na2HPO4 at 18 °C for 14-16 h while gentle shaking. After incubation, the oocytes were carefully washed several times with ND96 buffer (96 mM NaCl, 2 mM KCl, 1.8 mM CaCl2, 1 mM MgCl2 buffered with 5 mM HEPES/NaOH, pH 7.5) supplemented with 100 mg l^−1 gentamycin). Defolliculated and healthy-looking stage V-VI oocytes were manually selected for RNA microinjection. The RNA was generated as following: The codon-optimized sequences of PfCRT variants were cloned into the pSP64T expression vector. After vector linearization using the restriction endonucleases BamHI or SalI (New England Biolabs), transcription was performed using the in vitro SP6 mMessage mMachine Kit (Ambion)[34]. The obtained RNA was kept at −80 °C and diluted with nuclease-free water to a concentration of 0.6 μg μl^−1. Precision-bore glass capillary tubes (3.5-inch glass capillaries; Drummond Scientific Co.) were pulled on a vertical puller (P-87 Flaming/Brown micropipette puller, Sutter Instrument Co.), graduated, and placed on a microinjector (Nanoject II Auto-Nanoliter Injector, Drummond Scientific Co.). 50 nl of nuclease-free water alone (control oocytes) or 50 nl of 0.6 μg μl^−1 RNA were injected under stereomicroscopic control. Injected oocytes were incubated for 46–72 h at 18 °C with twice-daily buffer changes before usage in experiments.
Drug uptake assays were performed as described previously[21],[22],[24],[34]. […] The direction of radio-labeled drug transport is here from the mostly acidic extracellular solution (pH 4.5 or 6.0, as indicated) into the oocyte cytosol (pH ∼ 7.2), which corresponds to the efflux of drug from the acidic digestive vacuole (pH 5.2) into the parasite cytoplasm (pH 7.2). The topology of PfCRT in the oolemma is such that both the N- and C-terminus face the extracellular milieu[3],[22]. In the parasite, the N- and C-terminus face the lumen of the digestive vacuole. […] For determination of the amount of drug uptake for each oocyte, the reaction medium was removed and the oocytes were washed three times with 2 ml of ice-cold ND96 buffer. Each oocyte was individually transferred to a scintillation vial containing 5% sodium dodecyl sulfate (200 μl) for lysis. […] Oocytes that were injected with water instead of RNA were analyzed in parallel, representing the uptake of a drug by diffusion and/or endogenous permeation pathways. The resulting value represents the “background“ level of drug accumulation in oocytes (in-depth discussion in[22]). The specific PfCRT-mediated uptake was determined by subtracting the corresponding background value measured in water-injected oocytes from that of PfCRT-expressing oocytes. In all cases, at least three separate experiments were performed on oocytes from different frogs (biological replicate), and for each condition in an experiment, measurements were made from 10 oocytes per treatment. For pH 5.5, 6.0, and 6.5, ND96 was buffered with 5 mM MES/Tris base. For pH 4.5, 5 mM Homo-Pipes was used as a buffer and 5 mM HEPES for uptake at pH 7.0.

Chain of PfCRT^Dd2 (Q9N623 whole entry A220S/I356T/K76T/M74I/N326S/N75E/Q271E/R371I): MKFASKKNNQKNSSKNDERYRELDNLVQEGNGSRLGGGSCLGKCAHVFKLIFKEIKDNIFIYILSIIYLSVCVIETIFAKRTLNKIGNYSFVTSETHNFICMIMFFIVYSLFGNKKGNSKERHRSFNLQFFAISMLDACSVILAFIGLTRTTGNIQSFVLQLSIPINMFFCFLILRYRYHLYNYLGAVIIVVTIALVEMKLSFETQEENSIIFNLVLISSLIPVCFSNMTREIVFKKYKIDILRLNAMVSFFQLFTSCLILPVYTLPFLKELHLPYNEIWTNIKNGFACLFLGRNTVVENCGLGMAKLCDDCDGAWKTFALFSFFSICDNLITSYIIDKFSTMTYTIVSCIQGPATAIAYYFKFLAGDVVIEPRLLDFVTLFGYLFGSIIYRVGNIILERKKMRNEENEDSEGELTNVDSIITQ

Structure (SMILES): CCN(CC)CCCC(C)Nc1ccnc2cc(Cl)ccc12 (centres unmarked) [CQ, chloroquine]
- PfCRTDd2 transport activity 10 µM CQ pH 4.5 (10 µM CQ, pH 4.5, individual replicates (Fig 4a)): 0.37 pmol oocyte-1 h-1 and 0.31 pmol oocyte-1 h-1 and 0.76 pmol oocyte-1 h-1 and 0.49 pmol oocyte-1 h-1
- PfCRTDd2 transport activity (10 µM CQ, pH 5.0, 60 min): 0.54 pmol oocyte-1 h-1
- PfCRTDd2 transport activity 10 µM CQ pH 5.0 (10 µM CQ, pH 5.0, individual replicates (Fig 4a)): 0.58 pmol oocyte-1 h-1 and 0.59 pmol oocyte-1 h-1 and 0.45 pmol oocyte-1 h-1
- PfCRTDd2 transport activity (10 µM CQ, pH 5.5, 60 min): 0.69 pmol oocyte-1 h-1
- PfCRTDd2 transport activity 10 µM CQ pH 5.5 (10 µM CQ, pH 5.5, individual replicates (Fig 4a)): 0.67 pmol oocyte-1 h-1 and 0.82 pmol oocyte-1 h-1 and 0.59 pmol oocyte-1 h-1 and 0.68 pmol oocyte-1 h-1
- PfCRTDd2 transport activity (10 µM CQ, pH 6.0, 60 min): 0.94 pmol oocyte-1 h-1 and 0.95 pmol oocyte-1 h-1 and 0.80 pmol oocyte-1 h-1 and 1.08 pmol oocyte-1 h-1
- PfCRTDd2 transport activity 10 µM CQ pH 6.0 (10 µM CQ, pH 6.0, individual replicates (Fig 4a)): 0.95 pmol oocyte-1 h-1 and 0.80 pmol oocyte-1 h-1 and 1.08 pmol oocyte-1 h-1
- PfCRTDd2-mediated CQ transport activity (10 µM CQ, time 0 min): 0.00 pmol oocyte-1
- PfCRTDd2-mediated CQ transport activity (10 µM CQ, time 30 min): 0.73 pmol oocyte-1
- PfCRTDd2-mediated CQ transport activity (10 µM CQ, time 60 min): 1.10 pmol oocyte-1
- PfCRTDd2-mediated CQ transport activity (10 µM CQ, time 90 min): 2.55 pmol oocyte-1
- v-1 pH 4.5 (10 µM CQ): 2.08 (pmol oocyte-1 h-1)-1
- v-1 pH 5.0 (10 µM CQ): 1.85 (pmol oocyte-1 h-1)-1
- v-1 pH 5.5 (10 µM CQ): 1.45 (pmol oocyte-1 h-1)-1
- v-1 pH 6.0 (10 µM CQ): 1.06 (pmol oocyte-1 h-1)-1
- PfCRTDd2 transport activity 50 µM CQ pH 4.5 (50 µM CQ, pH 4.5, individual replicates (Fig 4a)): 0.97 pmol oocyte-1 h-1 and 2.03 pmol oocyte-1 h-1 and 1.14 pmol oocyte-1 h-1 and 1.28 pmol oocyte-1 h-1
- PfCRTDd2 transport activity 50 µM CQ pH 5.0 (50 µM CQ, pH 5.0, individual replicates (Fig 4a)): 1.93 pmol oocyte-1 h-1 and 2.00 pmol oocyte-1 h-1 and 3.15 pmol oocyte-1 h-1 and 1.59 pmol oocyte-1 h-1 and 2.59 pmol oocyte-1 h-1 and 2.54 pmol oocyte-1 h-1 and 1.86 pmol oocyte-1 h-1 and 2.77 pmol oocyte-1 h-1 and 2.58 pmol oocyte-1 h-1 and 3.10 pmol oocyte-1 h-1
- PfCRTDd2 transport activity 50 µM CQ pH 5.5 (50 µM CQ, pH 5.5, individual replicates (Fig 4a)): 2.14 pmol oocyte-1 h-1 and 3.86 pmol oocyte-1 h-1 and 4.54 pmol oocyte-1 h-1 and 3.39 pmol oocyte-1 h-1 and 3.66 pmol oocyte-1 h-1 and 1.74 pmol oocyte-1 h-1 and 6.45 pmol oocyte-1 h-1 and 4.72 pmol oocyte-1 h-1 and 2.44 pmol oocyte-1 h-1 and 3.17 pmol oocyte-1 h-1 and 4.57 pmol oocyte-1 h-1 and 4.41 pmol oocyte-1 h-1 and 3.78 pmol oocyte-1 h-1
- PfCRTDd2 transport activity 50 µM CQ pH 6.0 (50 µM CQ, pH 6.0, individual replicates (Fig 4a)): 4.84 pmol oocyte-1 h-1 and 4.32 pmol oocyte-1 h-1 and 4.63 pmol oocyte-1 h-1
- PfCRTDd2-mediated CQ transport activity (50 µM CQ, time 0 min): 0.00 pmol oocyte-1
- PfCRTDd2-mediated CQ transport activity (50 µM CQ, time 30 min): 3.63 pmol oocyte-1
- PfCRTDd2-mediated CQ transport activity (50 µM CQ, time 60 min): 5.55 pmol oocyte-1
- PfCRTDd2-mediated CQ transport activity (50 µM CQ, time 90 min): 7.51 pmol oocyte-1
- v-1 pH 4.5 (50 µM CQ): 0.52 (pmol oocyte-1 h-1)-1
- v-1 pH 5.0 (50 µM CQ): 0.43 (pmol oocyte-1 h-1)-1
- v-1 pH 5.5 (50 µM CQ): 0.27 (pmol oocyte-1 h-1)-1
- v-1 pH 6.0 (50 µM CQ): 0.22 (pmol oocyte-1 h-1)-1
- PfCRTDd2 transport activity (100 µM CQ, pH 4.5, 60 min): 5.17 pmol oocyte-1 h-1 and 4.60 pmol oocyte-1 h-1 and 5.99 pmol oocyte-1 h-1 and 5.32 pmol oocyte-1 h-1 and 4.77 pmol oocyte-1 h-1
- PfCRTDd2 transport activity 100 µM CQ pH 4.5 (100 µM CQ, pH 4.5, individual replicates (Fig 4a)): 4.60 pmol oocyte-1 h-1 and 5.99 pmol oocyte-1 h-1 and 5.32 pmol oocyte-1 h-1 and 4.77 pmol oocyte-1 h-1
- PfCRTDd2 transport activity (100 µM CQ, pH 5.0, 60 min): 5.48 pmol oocyte-1 h-1
- PfCRTDd2 transport activity 100 µM CQ pH 5.0 (100 µM CQ, pH 5.0, individual replicates (Fig 4a)): 4.33 pmol oocyte-1 h-1 and 6.22 pmol oocyte-1 h-1 and 5.90 pmol oocyte-1 h-1
- PfCRTDd2 transport activity (100 µM CQ, pH 5.5, 60 min): 7.61 pmol oocyte-1 h-1
- PfCRTDd2 transport activity 100 µM CQ pH 5.5 (100 µM CQ, pH 5.5, individual replicates (Fig 4a)): 6.37 pmol oocyte-1 h-1 and 9.40 pmol oocyte-1 h-1 and 7.07 pmol oocyte-1 h-1
- PfCRTDd2 transport activity (100 µM CQ, pH 6.0, 60 min): 9.42 pmol oocyte-1 h-1 and 10.41 pmol oocyte-1 h-1 and 9.48 pmol oocyte-1 h-1 and 8.36 pmol oocyte-1 h-1
- PfCRTDd2 transport activity 100 µM CQ pH 6.0 (100 µM CQ, pH 6.0, individual replicates (Fig 4a)): 10.41 pmol oocyte-1 h-1 and 9.48 pmol oocyte-1 h-1 and 8.36 pmol oocyte-1 h-1
